System: Mycobacterium tuberculosis
Experiment: Selectivity for wild type Mycobacterium tuberculosis H37Rv ATCC 25618 over hygromycin-resistance Mycobacterium tuberculosis H37Rv ATCC 25618 overexpressing InhA
Type: functional

CCNC(=O)[C@@H]1C[C@@H](NC(=O)c2cc(CC)nn2C)CN1C(=O)c1coc2ccccc12 was tested. Which Selectivity ratio did it give?
Its Selectivity ratio is 16.
